Test results: ChEMBL document CHEMBL4842353, “Structure-activity relationship investigation for imidazopyrazole-3-carboxamide derivatives as novel selective inhibitors of Bruton's tyrosine kinase” (Eur J Med Chem, 2021)

Key:
in vivo [1] = conditions: Sprague-Dawley, rat, iv, 1 mg/kg
in vivo [2] = conditions: Sprague-Dawley, rat, iv, 1 mg/kg; remark: listed apart in the source
in vivo [3] = conditions: Sprague-Dawley, rat, po, 10 mg/kg
in vivo [4] = conditions: Sprague-Dawley, rat, po, 10 mg/kg; remark: listed apart in the source
in vivo [5] = conditions: Sprague-Dawley, rat, iv, 1 mg/kg; remark: listed apart in the source
in vivo [6] = conditions: Sprague-Dawley, rat, iv, 1 mg/kg; remark: listed apart in the source
in vivo [7] = conditions: Sprague-Dawley, rat, iv, 1 mg/kg; remark: listed apart in the source
in vivo [8] = conditions: Sprague-Dawley, rat, iv, 1 mg/kg; remark: listed apart in the source
in vivo [9] = conditions: Sprague-Dawley, rat, po, 10 mg/kg; remark: listed apart in the source
in vivo [10] = conditions: Sprague-Dawley, rat, po, 10 mg/kg; remark: listed apart in the source
in vivo [11] = conditions: Sprague-Dawley, rat, po, 10 mg/kg; remark: listed apart in the source
in vivo [12] = conditions: Sprague-Dawley, rat, po, 10 mg/kg; remark: listed apart in the source
in vivo [13] = conditions: Sprague-Dawley, rat, po, 10 mg/kg; remark: listed apart in the source
in vivo [14] = conditions: Sprague-Dawley, rat, iv, 1 mg/kg; remark: listed apart in the source
in vivo [15] = conditions: Sprague-Dawley, rat, po, 10 mg/kg; remark: listed apart in the source

- Cmax at 12 h (in vivo [1]): 537 ng/mL
- AUC(0-t) at 12 h (in vivo [2]): 180 ng·h/mL
- bioavailability at 24 h (in vivo [3]): 10.8%
- half-life at 24 h (in vivo [4]): 5.98 h
- Tmax at 12 h (in vivo [5]): 1.98 min
- MRT last at 12 h (in vivo [6]): 2.19 h
- AUC(0-inf) at 12 h (in vivo [7]): 198 ng·h/mL
- clearance at 12 h (in vivo [8]): 85 mL/min/kg
- MRT last at 24 h (in vivo [9]): 10.2 h
- AUC(0-inf) at 24 h (in vivo [10]): 213 ng·h/mL
- AUC(0-t) at 24 h (in vivo [11]): 167 ng·h/mL
- CL/F at 24 h (in vivo [12]): 786 mL/min/kg
- Tmax at 24 h (in vivo [13]): 0.83 h
- half-life at 12 h (in vivo [14]): 2.35 h
- Cmax at 24 h (in vivo [15]): 16 ng/mL
Compound: CC#CC(=O)N1CCC(c2cnn3c(C(N)=O)c(-c4ccc(Oc5ccccc5)cc4)[nH]c23)CC1
